# Assays:
# RBCs [1] = assay: Column agglutination of RBCs transformed with sterile-filtered vs unfiltered synthetic glycolipid; assay type: cell-based; details: for Column agglutination: 0.01 mg/mL, anti-A BioClone
# From the text: Some Atri-sp-Ad-DOPE (I) had been sterile-filtered through a 0.2 μm filter. To investigate whether transformation would be the same with this product a comparative trial was done.
# RBCs [2] = assay: Insertion efficiency: post-transformation supernatant solutions, tube serology; assay type: cell-based
# Method: The post-transformation supernatant solutions (from Atri-sp-Ad-DOPE (I) at 0.08 mg/mL, 0.05 mg/mL and 0.03 mg/mL, and Btri-sp-Ad-DOPE (VI) at 0.6 mg/mL, 20 μL) were added neat and in a 1:2 dilution to washed, packed RBCs (60 μL). The tubes were incubated in a 37° C. waterbath for one hour, with mixing taking place every 15 minutes.
# The transformed RBCs were washed 3× with PBS and then suspended in Cellstab™ at the appropriate concentration for serology testing.
# [3] = Solubility of synthetic glycolipids in hot PBS; assay type: physicochemical; details: hot PBS
# From the text: In the context of this description the phrase “water soluble” means a stable, single phase system is formed when the synthetic molecule construct is contacted with water or saline (such as PBS) in the absence of organic solvents or detergents, and the term “solution” has a corresponding meaning.
# For use in the transformation of cells the first criterion that synthetic glycolipids must satisfy is that they are soluble in aqueous solvents, e.g. phosphate buffered saline.
# Initial tests on the molecules were to establish solubility and thus eliminate those molecules that were unsuitable for use in the transformation of cells.
# [4] = tested on: group O red blood cells (RBCs); assay: Tube serology of group O RBCs transformed at 37° C. with synthetic glycolipids; assay type: cell-based, human; set-up: Albaclone anti-A, Tube / Bioclone anti-A, Tube: scale not given here
# Method: (§1) Washed packed group O red blood cells (RBCs) (3 parts by volume) and the synthetic glycolipid solution (1 part by volume, varying concentrations) were added to an eppendorf tube. The tube was incubated in a 37° C. waterbath for one hour, mixing every 15 minutes. […]
# (§2) Tube serology and Diamed gel-card results for RBCs transformed with the different synthetic molecule constructs are provided in Table 38. Results for the stability of the RBCs transformed with the different synthetic glycolipids at different concentrations are provided in Tables 39 to 44.
# RBCs [5] = assay: Insertion efficiency: post-transformation solutions concentrated 20x, Diamed serology; assay type: cell-based; details: post-transformation solution concentrated 20×, from 0.08 mg/mL
# Method: In addition, the post-transformation solutions were concentrated 20× and compared in parallel with the transformation solutions of known concentration. Only the post-transformation solutions derived from the 0.08 mg/mL Atri-sp-Ad-DOPE (I) and 0.6 mg/mL Btri-sp-Ad-DOPE (VI) solutions were tested.
# Post-transformation solutions (20 μL) were dialysed (pore size 500 Da) against de-ionised water for 2 days. The samples were left to dry in a fumehood for 10 days. At the end of this time they were transferred into a rotavapor flask and set on the rotavapor to rotate under vacuum with no heat overnight. Samples were dried in a water bath at 40° C. and washed over into smaller vessels with chloroform-methanol 2:1 leaving significant amounts of dried cellular material. The chloroform-methanol 2:1 washings were dried down, washed over again into test-tubes with chloroform-methanol 2:1 and dried down. These samples were redissolved in 1 mL of 1× PBS and used for transformation experiments. The cellular material in the bottom of the flasks was washed out with water into another set of tubes.
# The post-transformation solutions (from Atri-sp-Ad-DOPE (I) at 0.08 mg/mL and Btri-sp-Ad-DOPE (VI) at 0.6 mg/mL, 20 μL) were added to washed, packed RBCs (60 μL). […]
# [6] = tested on: group O red blood cells (RBCs); assay: Diamed gel-card agglutination of group O RBCs transformed at 37° C. with synthetic glycolipids; assay type: cell-based, human; set-up: scale not given here; details: for Agglutination, Diamed gel-cards, Albaclone anti-A / Agglutination, Diamed gel-cards, Bioclone anti-A: 0.025 mg/mL
# Method: as §1, §2
# RBCs [7] = assay: Detectable transformation ability of synthetic glycolipids (agglutination); assay type: cell-based; details: agglutination with the appropriate antibody
# From the text: The synthetic glycolipid must also be able to insert into the membrane and be recognisable to the appropriate antibody for transformation to be detected by agglutination. Initial tests on the molecules were to establish solubility and thus eliminate those molecules that were unsuitable for use in the transformation of cells.
compound,measurement,setting,value
CCCCCCCC/C=C\CCCCCCCC(=O)OC[C@H](COP(=O)(O)OCCNC(=O)CCCCC(=O)NCCCO[C@@H]1O[C@H](CO)[C@H](O)[C@H](O[C@H]2O[C@H](CO)[C@H](O)[C@H](O)[C@H]2NC(C)=O)[C@H]1O[C@@H]1O[C@@H](C)[C@@H](O)[C@@H](O)[C@@H]1O)OC(=O)CCCCCCC/C=C\CCCCCCCC [Atri-sp-Ad-DOPE (I)],Difference in transformation between sterile-filtered (0.2 μm) and unfiltered preparation,RBCs [1],no significant difference
same,Column agglutination,RBCs [1]; sterile-filtered,0
same,Column agglutination,RBCs [1]; unfiltered,0
same,Score (tube serology),"RBCs [2]; 1:2, pre-trans conc 0.03 mg/mL",0
same,Score (tube serology),"RBCs [2]; 1:2, pre-trans conc 0.05 mg/mL",0
same,Score (tube serology),"RBCs [2]; 1:2, pre-trans conc 0.08 mg/mL",0
same,Score (tube serology),"RBCs [2]; neat, pre-trans conc 0.03 mg/mL",0
same,Score (tube serology),"RBCs [2]; neat, pre-trans conc 0.05 mg/mL",0
same,Score (tube serology),"RBCs [2]; neat, pre-trans conc 0.08 mg/mL, 37° C. 1 h",0
same,Water solubility,[3],Yes
same,"Albaclone anti-A, Tube",[4]; 0.01 mg/mL,0
same,"Bioclone anti-A, Tube",[4]; 0.01 mg/mL,0
same,"Albaclone anti-A, Tube",[4]; 0.02 mg/mL,0
same,"Bioclone anti-A, Tube",[4]; 0.02 mg/mL,0
same,"Agglutination, manual tube serology, Albaclone anti-A","[4]; 0.025 mg/mL, Day 8, Alsevers",w+
same,"Agglutination, manual tube serology, Albaclone anti-A","[4]; 0.025 mg/mL, Day 8, Cellstab",vw
same,"Agglutination, manual tube serology, Albaclone anti-A","[4]; 0.025 mg/mL, Day 15, Alsevers",0
same,"Agglutination, manual tube serology, Bioclone anti-A","[4]; 0.025 mg/mL, Day 15, Alsevers",Vw
same,"Agglutination, manual tube serology, Albaclone anti-A","[4]; 0.025 mg/mL, Day 15, Cellstab",0
same,"Agglutination, manual tube serology, Albaclone anti-A","[4]; 0.025 mg/mL, Day 22, Alsevers",0
same,"Agglutination, manual tube serology, Bioclone anti-A","[4]; 0.025 mg/mL, Day 22, Alsevers",w+
same,"Agglutination, manual tube serology, Albaclone anti-A","[4]; 0.025 mg/mL, Day 44, Cellstab",w+
same,"Agglutination, manual tube serology, Bioclone anti-A","[4]; 0.025 mg/mL, Day 44, Cellstab",w+
same,"Albaclone anti-A, Tube",[4]; 0.03 mg/mL,0
same,"Bioclone anti-A, Tube",[4]; 0.03 mg/mL,w+
same,"Albaclone anti-A, Tube",[4]; 0.04 mg/mL,w+
same,"Albaclone anti-A, Tube",[4]; 0.05 mg/mL,w+
same,"Agglutination, manual tube serology, Albaclone anti-A","[4]; 0.05 mg/mL, Day 15, Cellstab",w+
same,Score (Diamed serology),RBCs [5],0
same,"Albaclone anti-A, Diamed",[6]; 0.01 mg/mL,0
same,"Bioclone anti-A, Diamed",[6]; 0.01 mg/mL,0
same,"Agglutination, Diamed gel-cards, Albaclone anti-A","[6]; Day 2, Alsevers",0
same,"Agglutination, Diamed gel-cards, Albaclone anti-A","[6]; Day 2, Cellstab",0
same,"Agglutination, Diamed gel-cards, Albaclone anti-A","[6]; Day 8, Alsevers",0
same,"Agglutination, Diamed gel-cards, Albaclone anti-A","[6]; Day 8, Cellstab",0
same,"Agglutination, Diamed gel-cards, Albaclone anti-A","[6]; Day 15, Alsevers",0
same,"Agglutination, Diamed gel-cards, Albaclone anti-A","[6]; Day 15, Cellstab",0
same,"Agglutination, Diamed gel-cards, Albaclone anti-A","[6]; Day 22, Alsevers",0
same,"Agglutination, Diamed gel-cards, Bioclone anti-A","[6]; Day 22, Alsevers",w+
same,"Agglutination, Diamed gel-cards, Albaclone anti-A","[6]; Day 22, Cellstab",0
same,"Agglutination, Diamed gel-cards, Albaclone anti-A","[6]; Day 29, Alsevers",0
same,"Agglutination, Diamed gel-cards, Bioclone anti-A","[6]; Day 29, Alsevers",w+
same,"Agglutination, Diamed gel-cards, Albaclone anti-A","[6]; Day 29, Cellstab",0
same,"Agglutination, Diamed gel-cards, Albaclone anti-A","[6]; Day 43, Alsevers",w+
same,"Agglutination, Diamed gel-cards, Albaclone anti-A","[6]; Day 43, Cellstab",0
same,"Agglutination, Diamed gel-cards, Albaclone anti-A","[6]; Day 50, Alsevers",w+
same,"Agglutination, Diamed gel-cards, Albaclone anti-A","[6]; Day 50, Cellstab",0
same,"Agglutination, Diamed gel-cards, Albaclone anti-A","[6]; Day 57, Cellstab",0
same,"Agglutination, Diamed gel-cards, Bioclone anti-A","[6]; Day 57, Cellstab",w+
same,"Agglutination, Diamed gel-cards, Albaclone anti-A","[6]; Day 63, Cellstab",0
same,"Agglutination, Diamed gel-cards, Bioclone anti-A","[6]; Day 63, Cellstab",0
same,"Agglutination, Diamed gel-cards, Albaclone anti-A","[6]; Day 71, Cellstab",0
same,"Agglutination, Diamed gel-cards, Bioclone anti-A","[6]; Day 71, Cellstab",0
same,"Agglutination, Diamed gel-cards, Albaclone anti-A","[6]; Day 86, Cellstab",0
same,"Agglutination, Diamed gel-cards, Bioclone anti-A","[6]; Day 86, Cellstab",0
same,Detectable transformation ability,RBCs [7],Yes

# Reference: patent publication US10858384B2, “Synthetic molecule constructs” (KODE BIOTECH LIMITED, priority 2004, dated 2020)
